Earlier results, collected in US20210236687A1, “CANNABINOID-BASED ORAL HEMOSTATIC COMPOSITIONS” (Pac-Dent, Inc., priority 2020, published 2021).

Legend:
[1] = in vivo
[2] = test system: MCP-2 chemokine and other proinflammatory cytokines; conditions: Petrosino et al. 2018; inhibition of production of MCP-2 chemokine and other proinflammatory cytokines
[3] = in vivo; remark: listed apart in the source
[4] = test system: methicillin-resistant Staphylococcus aureus strains (MRSA); conditions: European research
[5] = Evans 1991

CCCCCc1cc(O)c2c(c1)OC(C)(CCC=C(C)C)C=C2 (stereo not shown) [CBC, cannabichromene]
pain and inflammation associated with collagen-induced osteoarthritis [1]: block pain and inflammation
anti-inflammatory properties in an in vitro model of allergic contact dermatitis [2]: some anti-inflammatory benefits

C=C(C)[C@@H]1CCC(C)=C[C@H]1c1c(O)cc(CCCCC)cc1O [CBD, cannabidiol, reference compound]
anti-inflammatory properties in an in vitro model of allergic contact dermatitis [2]: potent anti-inflammatory properties

C=C(C)[C@@H]1CCC(C)=C[C@H]1c1c(O)cc(CCC)cc1O [CBDV, cannabidivarin]
anti-inflammatory properties in an in vitro model of allergic contact dermatitis [2]: some anti-inflammatory benefits

CCCCCc1cc(O)c(C/C=C(\C)CCC=C(C)C)c(O)c1 [CBG, cannabigerol]
anti-inflammatory properties in an in vitro model of allergic contact dermatitis [2]: some anti-inflammatory benefits
inflammation characteristics in animal experiments [3]: effective in decreasing the inflammation characteristics
antibacterial effect against MRSA strains resistant to several classes of drugs [4]: effective antibacterial agent

CCCCCc1cc(O)c2c(c1)OC(C)(C)[C@@H]1CCC(C)=C[C@@H]21 [THC, tetrahydrocannabinol]
cyclooxygenase (COX) inhibition (cyclooxygenase (COX)): without any cyclooxygenase (COX) inhibition
anti-inflammatory potency relative to aspirin [5]: twenty times
anti-inflammatory potency relative to hydrocortisone [5]: twice
